ChEMBL document CHEMBL1201862, “PubChem BioAssay data set” (2004)
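Five compound concentrations were applied to cells in 96-well plates for 48 hours; endpoints were derived by simple linear interpolation of the resulting dose-response curve. GI50 = concentration required for 50% inhibition of growth.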 Activity calls are given as the source filed them. No stated cut-off is given here; in the data, active = GI50 up to about 1.1 µM and inactive = higher.

Key:
Assay in all cases: inhibition of tumour cell growth, NCI panel, 48 h
NCI-H23 = system: NCI-H23
OVCAR-3 = system: OVCAR-3
MDA-MB-435 = system: MDA-MB-435
NCI-H460 = system: NCI-H460
NCI-H522 = system: NCI-H522
OVCAR-8 = system: OVCAR-8
EKVX = system: EKVX
HOP-62 = system: HOP-62
IGROV-1 = system: IGROV-1
SF-539 = system: SF-539
SR = system: SR
CAKI-1 = system: CAKI-1
SK-OV-3 = system: SK-OV-3
U-251 = system: U-251
HL-60 = system: HL-60
A549 = system: A549
SNB-75 = system: SNB-75
SN12C = system: SN12C
786-0 = system: 786-0
RPMI-8226 = system: RPMI-8226
NCI/ADR-RES = system: NCI/ADR-RES
Hs-578T = system: Hs-578T
SW-620 = system: SW-620
OVCAR-4 = system: OVCAR-4
K562 = system: K562
KM12 = system: KM12
MCF7 = system: MCF7
TK-10 = system: TK-10
RXF 393 = system: RXF 393
OVCAR-5 = system: OVCAR-5
BT-549 = system: BT-549
UO-31 = system: UO-31
M14 = system: M14
DU-145 = system: DU-145
SK-MEL-28 = system: SK-MEL-28
HT-29 = system: HT-29
HCT-15 = system: HCT-15
HCT-116 = system: HCT-116
UACC-257 = system: UACC-257
HOP-92 = system: HOP-92
Malme-3M = system: Malme-3M
A498 = system: A498
MDA-MB-231 = system: MDA-MB-231
UACC-62 = system: UACC-62
SNB-19 = system: SNB-19
LOX IMVI = system: LOX IMVI
SF-268 = system: SF-268
NCI-H226 = system: NCI-H226
ACHN = system: ACHN
MDA-N = system: MDA-N
SK-MEL-5 = system: SK-MEL-5
HCC 2998 = system: HCC 2998
COLO 205 = system: COLO 205
PC-3 = system: PC-3
T47D = system: T47D
SF-295 = system: SF-295
SK-MEL-2 = system: SK-MEL-2
CCRF-CEM = system: CCRF-CEM
MOLT-4 = system: MOLT-4

In the case of `O=C(O)c1cc(C(=O)O)cc(N2C(=O)c3ccccc3C2=O)c1`, the GI50 (NCI-H23) is reported as > 100 µM (inactive), the GI50 (OVCAR-3) is reported as > 100 µM (inactive) and the GI50 (MDA-MB-435) is reported as > 100 µM (inactive). For the same compound, the GI50 (NCI-H460) was > 100 µM (inactive), the GI50 (NCI-H522) was > 100 µM (inactive) and the GI50 (OVCAR-8) was > 100 µM (inactive). The GI50 (EKVX) was > 100 µM (inactive), the GI50 (HOP-62) was > 100 µM (inactive) and the GI50 (IGROV-1) was > 100 µM (inactive). The GI50 (SF-539) was > 100 µM (inactive), the GI50 (SR) was > 100 µM (inactive) and the GI50 (CAKI-1) was > 100 µM (inactive). The GI50 (SK-OV-3) was > 100 µM (inactive), the GI50 (U-251) was > 100 µM (inactive) and the GI50 (HL-60) was > 100 µM (inactive). The GI50 (A549) was > 100 µM (inactive), the GI50 (SNB-75) was > 100 µM (inactive) and the GI50 (SN12C) was > 100 µM (inactive). The GI50 (786-0) was > 100 µM (inactive), the GI50 (RPMI-8226) was > 100 µM (inactive) and the GI50 (NCI/ADR-RES) was > 100 µM (inactive). For the same compound, the GI50 (Hs-578T) was > 100 µM (inactive), the GI50 (SW-620) was > 100 µM (inactive) and the GI50 (OVCAR-4) was > 100 µM (inactive). The GI50 (K562) was > 100 µM (inactive), the GI50 (KM12) was > 100 µM (inactive) and the GI50 (MCF7) was > 100 µM (inactive). For the same compound, the GI50 (TK-10) was > 100 µM (inactive), the GI50 (RXF 393) was > 100 µM (inactive) and the GI50 (OVCAR-5) was > 100 µM (inactive). The GI50 (BT-549) was > 100 µM (inactive), the GI50 (UO-31) was > 100 µM (inactive) and the GI50 (M14) was > 100 µM (inactive). For the same compound, the GI50 (DU-145) was > 100 µM (inactive), the GI50 (SK-MEL-28) was > 100 µM (inactive) and the GI50 (HT-29) was > 100 µM (inactive). The GI50 (HCT-15) was > 100 µM, the GI50 (HCT-116) was > 100 µM (inactive) and the GI50 (UACC-257) was > 100 µM (inactive). For the same compound, the GI50 (HOP-92) was > 100 µM (inactive), the GI50 (Malme-3M) was > 100 µM (inactive) and the GI50 (A498) was > 100 µM (inactive). The GI50 (MDA-MB-231) was > 100 µM (inactive), the GI50 (UACC-62) was > 100 µM (inactive) and the GI50 (SNB-19) was > 100 µM (inactive). The GI50 (LOX IMVI) was > 100 µM (inactive), the GI50 (SF-268) was > 100 µM (inactive) and the GI50 (NCI-H226) was > 100 µM (inactive). The GI50 (ACHN) was > 100 µM (inactive), the GI50 (MDA-N) was > 100 µM (inactive) and the GI50 (SK-MEL-5) was > 100 µM (inactive). The GI50 (HCC 2998) was > 100 µM (inactive), the GI50 (COLO 205) was > 100 µM (inactive) and the GI50 (PC-3) was > 100 µM (inactive). The GI50 (T47D) was > 100 µM (inactive), the GI50 (SF-295) was > 100 µM (inactive) and the GI50 (SK-MEL-2) was > 100 µM (inactive).

With `COc1cc2c(cc1OC)C(C1CC1)ON(C)CC2` (stereo not given) the GI50 (NCI-H23) was > 100 µM (inactive), the GI50 (OVCAR-3) was > 100 µM (inactive) and the GI50 (MDA-MB-435) was > 100 µM (inactive). For the same compound, the GI50 (NCI-H460) was > 100 µM (inactive), the GI50 (NCI-H522) was > 100 µM (inactive) and the GI50 (OVCAR-8) was > 100 µM (inactive). For the same compound, the GI50 (EKVX) was 58.7 µM (inactive), the GI50 (HOP-62) was > 100 µM (inactive) and the GI50 (IGROV-1) was > 100 µM (inactive). For the same compound, the GI50 (SF-539) was > 100 µM (inactive), the GI50 (SR) was > 100 µM (inactive) and the GI50 (CAKI-1) was > 100 µM (inactive). For the same compound, the GI50 (U-251) was > 100 µM (inactive), the GI50 (HL-60) was > 100 µM (inactive) and the GI50 (A549) was > 100 µM (inactive). For the same compound, the GI50 (SNB-75) was > 100 µM (inactive), the GI50 (SN12C) was > 100 µM (inactive) and the GI50 (786-0) was > 100 µM (inactive). For the same compound, the GI50 (RPMI-8226) was > 100 µM (inactive), the GI50 (NCI/ADR-RES) was > 100 µM (inactive) and the GI50 (Hs-578T) was > 100 µM (inactive). The GI50 (SW-620) was > 100 µM (inactive), the GI50 (OVCAR-4) was > 100 µM (inactive) and the GI50 (K562) was > 100 µM (inactive). The GI50 (KM12) was > 100 µM (inactive), the GI50 (MCF7) was > 100 µM (inactive) and the GI50 (TK-10) was > 100 µM (inactive). For the same compound, the GI50 (RXF 393) was > 100 µM (inactive), the GI50 (OVCAR-5) was > 100 µM (inactive) and the GI50 (BT-549) was > 100 µM (inactive). The GI50 (UO-31) was > 100 µM (inactive), the GI50 (M14) was > 100 µM (inactive) and the GI50 (DU-145) was > 100 µM (inactive). For the same compound, the GI50 (CCRF-CEM) was > 100 µM (inactive), the GI50 (SK-MEL-28) was > 100 µM (inactive) and the GI50 (HT-29) was > 100 µM (inactive). The GI50 (HCT-15) was > 100 µM, the GI50 (HCT-116) was > 100 µM (inactive) and the GI50 (MOLT-4) was > 100 µM (inactive). The GI50 (UACC-257) was > 100 µM (inactive), the GI50 (HOP-92) was > 100 µM (inactive) and the GI50 (Malme-3M) was > 100 µM (inactive). The GI50 (A498) was > 100 µM (inactive), the GI50 (MDA-MB-231) was > 100 µM (inactive) and the GI50 (UACC-62) was > 100 µM (inactive). The GI50 (SNB-19) was > 100 µM (inactive), the GI50 (LOX IMVI) was > 100 µM (inactive) and the GI50 (SF-268) was > 100 µM (inactive). The GI50 (NCI-H226) was > 100 µM (inactive), the GI50 (ACHN) was > 100 µM (inactive) and the GI50 (MDA-N) was > 100 µM (inactive). For the same compound, the GI50 (SK-MEL-5) was > 100 µM (inactive), the GI50 (HCC 2998) was > 100 µM (inactive) and the GI50 (COLO 205) was > 100 µM (inactive). The GI50 (PC-3) was > 100 µM (inactive), the GI50 (T47D) was > 100 µM (inactive) and the GI50 (SF-295) was > 100 µM (inactive). For the same compound, the GI50 (SK-MEL-2) was > 100 µM (inactive).
